25 compounds from ChEMBL document CHEMBL3856283, “Structure-based design of ester compounds to inhibit MLL complex catalytic activity by targeting mixed lineage leukemia 1 (MLL1)-WDR5 interaction” (Bioorg Med Chem, 2016) can be followed below.

Data set [1] addresses T1, WD repeat-containing protein 5 (Homo sapiens, UniProt P61964). Nature of the data set: Inhibition of C-terminal 5-FAM-ARTEVHLRKS binding to WDR5 (unknown origin) by fluorescence polarization assay. (In general: Fluorescence polarisation rises when a labelled molecule tumbles more slowly, as on binding a larger partner.)
Data set [2] can be described thus: Antiproliferative activity against human MV4-11 cells harboring MLL-AF4 assessed as inhibition of cell viability after 72 hrs by CCK8-based colorimetric assay. Type of data set: functional. The conditions noted are these: MV4-11, 72 h. (In general: Formazan colour is commonly taken as a measure of viable cells.)
A short description of data set [3]: Antiproliferative activity against human K562 cells harboring BCR-ABL assessed as inhibition of cell viability after 72 hrs by CCK8-based colorimetric assay. Format: functional. The conditions noted are these: K562, 72 h.
The nature of data set [4]: Permeability of the compound after 4 hrs by PAMPA. Format: ADME. The conditions noted are these: read-out: permeability. Background: PAMPA measures passive passage across an artificial lipid membrane.
The target of data set [5] is T1, WD repeat-containing protein 5. Nature of the data set: Inhibition of N-terminal FITC-GSARAEVHLRKS binding to WDR5 (unknown origin) by fluorescence polarization assay.
In data set [6] the target is MLL1/ASH2L/RBBP5/WDR5 complex (Homo sapiens, UniProt P61964+Q03164+Q15291+Q9UBL3). Nature of the data set: Inhibition of recombinant MLL1 (unknown origin) interaction with recombinant ASH2L/RBBP5/WDR5 (unknown origin) assessed as decrease in histone methylation after 60 mins by Alpha Screen assay. Format: protein-complex assay.
A further data set relates to K562. Briefly: Selectivity ratio of IC50 for human K562 cells harboring BCR-ABL to IC50 for human MV4-11 cells harboring MLL-AF4. Format: functional.
Data set [7] can be described thus: Antiproliferative activity against human MV4-11 cells harboring MLL-AF4 after 7 days by CellTiter-Glo luminescent cell viability Assay. Type of data set: functional, cell-based. The conditions noted are these: MV4-11, 168 h.

For the compound `CCOC(=O)c1ccc(N2CCN(C)CC2)c(NC(=O)c2ccc(F)c(C)c2Cl)c1`, the IC50 – broadly, the concentration that inhibits the measured activity by half – in data set [1] came to 0.284 µM; in data set [2] it was 49.8 µM; in data set [3] it was 90.7 µM. The Papp at 4 h in data set [4] turned out to be 44.9 ×10⁻⁶ cm/s.
In the same order, the values of `CC(C)OC(=O)c1ccc(N2CCN(C)CC2)c(NC(=O)c2ccc(F)c([N+](=O)[O-])c2)c1` are 1.17 µM, 13.3 µM, 58 µM and 61.4 ×10⁻⁶ cm/s.
As to `Cc1c(F)c([N+](=O)[O-])cc(C(=O)Nc2cc(C(=O)Oc3ccccc3)ccc2N2CCN(C)CC2)c1Cl`, the IC50 in data set [1] worked out at 0.812 µM; in data set [2] it was 9.9 µM; in data set [3], 15.7 µM. In addition, the Papp at 4 h in data set [4] was 56.3 ×10⁻⁶ cm/s.
Turning to `CC(C)OC(=O)c1ccc(N2CCN(C)CC2)c(NC(=O)c2ccc(F)c(N)c2)c1`, the IC50 in data set [1] was above 0.02 µM.
Still for that read-out and setting: for `COC(=O)c1ccc(N2CCN(C)CC2)c(NC(=O)c2ccc(F)c(N)c2)c1` the value was above 0.02 µM.
For the compound `COC(=O)c1ccc(N2CCN(C)CC2)c(NC(=O)c2cccc(OC)c2)c1`, the affinity in data set [5], expressed as Kd, was 3 µM.
In turn, `CN1CCN(c2ccc(C(=O)OC3CCCCC3)cc2NC(=O)c2ccc(F)c(N)c2)CC1` had an IC50 in data set [1] above 0.02 µM.
Turning to `Cc1c(F)ccc(C(=O)Nc2cc(C(=O)OC3CCCCC3)ccc2N2CCN(C)CC2)c1Cl`, the IC50 in data set [1] is above 20 µM.
With `CC(C)NCC(O)COc1cccc2ccccc12` (stereo unspecified) [PROPRANOLOL], in data set [4], the Papp at 4 h turned out to be 98.7 ×10⁻⁶ cm/s.
Consider `Cc1c(F)c(N)cc(C(=O)Nc2cc(C(=O)Oc3ccccc3)ccc2N2CCN(C)CC2)c1Cl`, for which the IC50 was determined as 0.0264 µM in data set [1], 5.4 µM in data set [6], 66.5 µM in data set [2] and 33.4 µM in data set [3]. Besides, the Papp at 4 h in data set [4] was 38 ×10⁻⁶ cm/s.
`CN1CCN(c2ccc(C(=O)Oc3ccccc3)cc2NC(=O)c2ccc(F)c(N)c2)CC1` returned an IC50 in data set [1] above 20 µM.
With `Cc1c(F)ccc(C(=O)Nc2cc(C(=O)Oc3ccccc3)ccc2N2CCN(C)CC2)c1Cl`, the IC50 in data set [1] amounted to 0.162 µM; in data set [2] it was 45.2 µM; in data set [3], 53.9 µM. For the same compound, the Papp at 4 h in data set [4] is 48 ×10⁻⁶ cm/s.
Take `COC(=O)c1ccc(N2CCN(C)CC2)c(NC(=O)c2ccc(F)c([N+](=O)[O-])c2)c1`: the IC50 in data set [1] was determined as 0.454 µM; in data set [2], 4.7 µM; in data set [3], 57.1 µM. Moreover, in the data set with K562, the “Ratio IC50” value was 10. Also, in data set [4], the Papp at 4 h was 52.4 ×10⁻⁶ cm/s.
For `COC(=O)c1ccc(N2CCN(C)CC2)c(NC(=O)c2cc([N+](=O)[O-])c(F)c(C)c2Cl)c1`, the figures for the IC50 in data set [1], in data set [2] and in data set [3] were 0.245 µM, 3.4 µM and 17.2 µM, respectively. Moreover, the Papp at 4 h in data set [4] worked out at 74.8 ×10⁻⁶ cm/s.
`COC(=O)c1ccc(N2CCN(C)CC2)c(NC(=O)c2cc(N)c(F)c(C)c2Cl)c1`: the IC50 in data set [1] is 0.0465 µM; in data set [6] it was 4.6 µM; in data set [2], above 100 µM; in data set [3] it was above 100 µM. In data set [4], the Papp at 4 h came out at 52.9 ×10⁻⁶ cm/s.
As for `Cc1c(F)c([N+](=O)[O-])cc(C(=O)Nc2cc(C(=O)OC3CCCCC3)ccc2N2CCN(C)CC2)c1Cl`, the IC50 in data set [1] is above 0.02 µM.
Compound `CN1CCN(c2ccc(C(=O)OC3CCCCC3)cc2NC(=O)c2ccc(F)c([N+](=O)[O-])c2)CC1` came in with an IC50 in data set [1] above 20 µM.
As to `Cc1c(F)ccc(C(=O)Nc2cc(C(=O)OC(C)C)ccc2N2CCN(C)CC2)c1Cl`, the IC50 in data set [1] was 0.264 µM; in data set [2] it was 57.1 µM; in data set [3], above 100 µM. In data set [4], the Papp at 4 h turned out to be 49.8 ×10⁻⁶ cm/s.
On the same counts, the results for `COC(=O)c1ccc(N2CCN(C)CC2)c(NC(=O)c2ccc(F)c(C)c2Cl)c1` are 0.433 µM, above 100 µM, above 100 µM and 59.8 ×10⁻⁶ cm/s.
In the same order, the values of `CN1CCN(c2ccc(C(=O)Oc3ccccc3)cc2NC(=O)c2ccc(F)c([N+](=O)[O-])c2)CC1` are 0.483 µM, 10.8 µM, 11.6 µM and 60 ×10⁻⁶ cm/s.
Take `Cc1c(F)c(N)cc(C(=O)Nc2cc(C(=O)OC3CCCCC3)ccc2N2CCN(C)CC2)c1Cl`: the IC50 in data set [1] was 0.0588 µM; in data set [2], above 100 µM; in data set [3], above 100 µM. Besides, the Papp at 4 h in data set [4] stood at 5.6 ×10⁻⁶ cm/s.
In data set [1], `CN1CCN(c2ccc(C(=O)O)cc2NC(=O)c2ccc(F)c([N+](=O)[O-])c2)CC1` came in with an IC50 above 0.02 µM.
`CCC(CC)(NC(=O)C(C)C)C(=O)N[C@@H](CCCNC(=N)N)C(=O)NC1(C(=O)NC(c2ccc(F)cc2)c2ccc(F)cc2)CCCC1`: the IC50 in data set [2] is 20.7 µM; in data set [3] it was 37.8 µM; in data set [7], 25 µM.
As to `Cc1c(F)ccc(C(=O)Nc2cc(C(=O)O)ccc2N2CCN(C)CC2)c1Cl`, in data set [1], the IC50 is above 20 µM.
Same read-out and setting: then `CCOC(=O)c1ccc(N2CCN(C)CC2)c(NC(=O)c2ccc(F)c([N+](=O)[O-])c2)c1`, with above 0.02 µM.
